Legend:
[1] = target: Sucrase-isomaltase, intestinal (Rattus norvegicus) (UniProt P23739); details: Wistar, 1000 uM
Description: Inhibition of Wistar rat intestinal isomaltase at 1000 uM

[2] = Inhibition of bovine liver beta-galactosidase; set-up: species or system Bos taurus
[3] = target: Lactase/phlorizin hydrolase (Rattus norvegicus, UniProt Q02401); test: Inhibition of Wistar rat intestinal lactase
[4] = target: Sucrase-isomaltase, intestinal (Rattus norvegicus, UniProt P23739); test: Inhibition of Wistar rat intestinal sucrase
[5] = Inhibition of Wistar rat intestinal alpha alpha-trehalase
[6] = Inhibition of Caldocellum saccharolyticum beta-glucosidase; set-up: species or system Caldicellulosiruptor saccharolyticus
[7] = target: T1, Uncharacterized protein (Sus scrofa) (UniProt I3LIR5); details: 1000 uM
T1 sequence (whole entry): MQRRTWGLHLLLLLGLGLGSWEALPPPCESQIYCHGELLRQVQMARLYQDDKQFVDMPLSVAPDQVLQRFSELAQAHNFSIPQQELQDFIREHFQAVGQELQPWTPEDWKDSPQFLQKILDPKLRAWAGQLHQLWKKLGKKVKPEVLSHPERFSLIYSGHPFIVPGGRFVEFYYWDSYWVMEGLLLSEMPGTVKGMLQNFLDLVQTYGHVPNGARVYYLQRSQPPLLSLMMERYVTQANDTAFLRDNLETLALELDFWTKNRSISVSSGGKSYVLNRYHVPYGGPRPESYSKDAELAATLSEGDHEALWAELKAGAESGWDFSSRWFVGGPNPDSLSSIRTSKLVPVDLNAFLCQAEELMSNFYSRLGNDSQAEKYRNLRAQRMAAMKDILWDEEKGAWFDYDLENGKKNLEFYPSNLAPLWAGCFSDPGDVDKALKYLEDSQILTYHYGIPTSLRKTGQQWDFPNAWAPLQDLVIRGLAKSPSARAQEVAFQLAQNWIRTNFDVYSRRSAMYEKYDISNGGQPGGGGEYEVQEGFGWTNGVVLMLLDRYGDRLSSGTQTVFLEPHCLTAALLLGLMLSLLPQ
Description: Inhibition of pig kidney alpha alpha-trehalase at 1000 uM

[8] = Inhibition of rice alpha-glucosidase; set-up: species or system Oryza sativa
[9] = Inhibition of almond beta-glucosidase; set-up: species or system Prunus dulcis
Uncharacterized protein = target: T2, Uncharacterized protein (Sus scrofa, UniProt I3LIR5); test: Inhibition of pig kidney alpha alpha-trehalase
T2 sequence (I3LIR5 whole entry): T1 sequence (whole entry)

[10] = Inhibition of yeast alpha-glucosidase; set-up: species or system Saccharomyces cerevisiae
[11] = target: Lysosomal alpha-glucosidase (Rattus norvegicus) (UniProt Q6P7A9); details: Wistar, 1000 uM
Description: Inhibition of Wistar rat liver lysosomal alpha-glucosidase at 1000 uM

[12] = target: Sucrase-isomaltase, intestinal (Rattus norvegicus) (UniProt P23739); details: Wistar, 1000 uM; remark: listed apart in the source
Description: Inhibition of Wistar rat intestinal sucrase at 1000 uM

Bos taurus = species: Bos taurus; details: 1000 uM
Description: Inhibition of bovine liver beta-galactosidase at 1000 uM

[13] = system: Caldicellulosiruptor saccharolyticus; details: 1000 uM
Description: Inhibition of Caldocellum saccharolyticum beta-glucosidase at 1000 uM

[14] = target: T3, Tissue alpha-L-fucosidase (Bos taurus, UniProt Q2KIM0); test: Inhibition of bovine epididymis alpha-L-fucosidase at 1000 uM
T3 sequence (Q2KIM0 whole entry): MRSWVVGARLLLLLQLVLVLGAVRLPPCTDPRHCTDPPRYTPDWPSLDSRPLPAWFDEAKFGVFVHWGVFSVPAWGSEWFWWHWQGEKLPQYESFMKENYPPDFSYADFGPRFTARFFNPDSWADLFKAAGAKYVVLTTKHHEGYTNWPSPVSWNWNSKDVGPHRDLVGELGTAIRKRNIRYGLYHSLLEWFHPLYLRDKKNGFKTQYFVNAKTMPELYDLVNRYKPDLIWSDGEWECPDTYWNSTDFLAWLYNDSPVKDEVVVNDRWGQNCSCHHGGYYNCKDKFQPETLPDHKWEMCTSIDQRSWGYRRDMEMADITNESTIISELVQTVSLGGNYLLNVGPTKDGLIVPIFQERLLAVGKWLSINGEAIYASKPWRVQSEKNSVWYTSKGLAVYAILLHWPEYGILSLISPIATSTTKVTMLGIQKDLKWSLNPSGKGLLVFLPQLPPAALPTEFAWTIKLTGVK

[15] = target: Lactase/phlorizin hydrolase (Rattus norvegicus) (UniProt Q02401); details: Wistar, 1000 uM
Description: Inhibition of Wistar rat intestinal lactase at 1000 uM

Oryza sativa = details: 1000 uM
Description: Inhibition of rice alpha-glucosidase at 1000 uM

Rattus norvegicus = species: Rattus norvegicus; details: Wistar, 1000 uM
Description: Inhibition of Wistar rat intestinal alpha alpha-trehalase at 1000 uM

[16] = target: Lysosomal alpha-glucosidase (Rattus norvegicus) (UniProt Q6P7A9); details: Wistar, 1000 uM; remark: listed apart in the source
Description: Inhibition of Wistar rat intestinal maltase at 1000 uM

Chain of Lysosomal alpha-glucosidase (Rattus norvegicus) (Q6P7A9 whole entry): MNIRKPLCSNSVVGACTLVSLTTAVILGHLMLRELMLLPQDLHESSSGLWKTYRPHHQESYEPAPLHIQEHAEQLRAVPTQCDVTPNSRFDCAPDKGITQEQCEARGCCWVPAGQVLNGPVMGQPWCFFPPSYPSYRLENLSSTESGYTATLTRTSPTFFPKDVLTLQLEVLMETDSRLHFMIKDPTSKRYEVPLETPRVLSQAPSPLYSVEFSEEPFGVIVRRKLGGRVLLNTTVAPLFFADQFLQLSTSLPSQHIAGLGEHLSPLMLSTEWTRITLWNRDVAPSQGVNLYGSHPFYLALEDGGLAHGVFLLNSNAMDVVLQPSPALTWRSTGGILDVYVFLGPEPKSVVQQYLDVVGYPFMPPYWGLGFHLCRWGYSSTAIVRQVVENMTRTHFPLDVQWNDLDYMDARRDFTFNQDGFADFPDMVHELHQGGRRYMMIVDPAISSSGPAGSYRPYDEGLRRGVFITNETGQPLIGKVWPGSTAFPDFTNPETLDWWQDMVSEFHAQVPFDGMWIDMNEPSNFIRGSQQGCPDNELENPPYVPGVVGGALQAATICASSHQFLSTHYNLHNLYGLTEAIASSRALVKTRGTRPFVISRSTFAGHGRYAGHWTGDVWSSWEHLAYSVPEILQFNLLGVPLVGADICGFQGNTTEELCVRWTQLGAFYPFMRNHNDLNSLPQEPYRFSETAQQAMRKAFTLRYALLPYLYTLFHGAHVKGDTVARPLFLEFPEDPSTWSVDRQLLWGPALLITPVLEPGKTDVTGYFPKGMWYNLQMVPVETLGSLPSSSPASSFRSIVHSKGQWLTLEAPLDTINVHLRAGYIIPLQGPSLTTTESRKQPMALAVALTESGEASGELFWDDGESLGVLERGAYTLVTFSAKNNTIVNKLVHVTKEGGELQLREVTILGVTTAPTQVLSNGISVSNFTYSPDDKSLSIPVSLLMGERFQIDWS
Chain of Sucrase-isomaltase, intestinal (Rattus norvegicus) (P23739 1-1013 limits assumed): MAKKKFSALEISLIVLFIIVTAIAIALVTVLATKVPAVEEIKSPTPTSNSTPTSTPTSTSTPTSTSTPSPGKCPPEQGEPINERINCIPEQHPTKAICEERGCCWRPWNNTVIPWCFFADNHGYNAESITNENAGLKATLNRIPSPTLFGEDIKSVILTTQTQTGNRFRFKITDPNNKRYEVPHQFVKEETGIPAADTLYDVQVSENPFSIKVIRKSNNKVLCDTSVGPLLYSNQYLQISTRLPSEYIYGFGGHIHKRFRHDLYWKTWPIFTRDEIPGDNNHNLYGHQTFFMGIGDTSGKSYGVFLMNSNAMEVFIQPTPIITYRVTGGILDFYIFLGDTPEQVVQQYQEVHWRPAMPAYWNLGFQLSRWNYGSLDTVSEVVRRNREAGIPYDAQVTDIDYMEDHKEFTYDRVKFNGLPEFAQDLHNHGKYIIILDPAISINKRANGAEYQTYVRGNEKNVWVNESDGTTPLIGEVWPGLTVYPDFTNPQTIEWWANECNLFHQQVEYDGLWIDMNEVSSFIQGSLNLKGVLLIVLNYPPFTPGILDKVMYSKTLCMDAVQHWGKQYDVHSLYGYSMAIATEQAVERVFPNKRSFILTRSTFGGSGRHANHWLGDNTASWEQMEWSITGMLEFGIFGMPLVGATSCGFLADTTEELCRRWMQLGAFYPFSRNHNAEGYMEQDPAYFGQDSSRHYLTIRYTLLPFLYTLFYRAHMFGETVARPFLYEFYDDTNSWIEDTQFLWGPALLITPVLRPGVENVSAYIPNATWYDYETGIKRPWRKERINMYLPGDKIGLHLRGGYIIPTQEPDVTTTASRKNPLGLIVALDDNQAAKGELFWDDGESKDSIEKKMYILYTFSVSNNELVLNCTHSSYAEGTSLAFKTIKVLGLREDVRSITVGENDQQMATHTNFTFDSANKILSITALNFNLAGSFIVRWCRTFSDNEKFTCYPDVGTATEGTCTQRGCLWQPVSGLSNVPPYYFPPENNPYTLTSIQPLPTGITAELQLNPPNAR
Chain of Sucrase-isomaltase, intestinal (Rattus norvegicus) (P23739 1014-1841 limits assumed): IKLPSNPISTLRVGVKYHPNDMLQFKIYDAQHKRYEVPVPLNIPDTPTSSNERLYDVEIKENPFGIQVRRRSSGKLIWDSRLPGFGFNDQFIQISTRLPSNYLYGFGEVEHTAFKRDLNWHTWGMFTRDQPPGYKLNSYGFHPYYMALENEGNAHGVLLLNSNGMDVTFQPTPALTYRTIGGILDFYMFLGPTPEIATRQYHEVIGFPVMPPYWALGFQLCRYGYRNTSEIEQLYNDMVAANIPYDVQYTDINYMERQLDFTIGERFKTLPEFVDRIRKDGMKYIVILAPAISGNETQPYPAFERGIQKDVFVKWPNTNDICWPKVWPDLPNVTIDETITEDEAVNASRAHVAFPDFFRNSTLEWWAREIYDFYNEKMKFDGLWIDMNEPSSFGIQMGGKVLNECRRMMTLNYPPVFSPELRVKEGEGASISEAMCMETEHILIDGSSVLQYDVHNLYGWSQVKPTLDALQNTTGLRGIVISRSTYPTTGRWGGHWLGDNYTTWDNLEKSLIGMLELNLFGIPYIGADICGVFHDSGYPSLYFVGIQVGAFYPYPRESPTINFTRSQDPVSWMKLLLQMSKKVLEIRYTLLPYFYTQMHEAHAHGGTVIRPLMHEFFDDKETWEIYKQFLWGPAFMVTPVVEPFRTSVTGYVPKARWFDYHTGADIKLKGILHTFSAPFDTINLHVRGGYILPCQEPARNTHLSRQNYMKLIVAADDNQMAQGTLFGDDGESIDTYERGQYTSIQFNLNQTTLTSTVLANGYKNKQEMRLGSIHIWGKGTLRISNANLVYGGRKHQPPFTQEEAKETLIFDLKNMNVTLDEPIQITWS
Chain of Lactase/phlorizin hydrolase (Q02401 868-1928 limits assumed): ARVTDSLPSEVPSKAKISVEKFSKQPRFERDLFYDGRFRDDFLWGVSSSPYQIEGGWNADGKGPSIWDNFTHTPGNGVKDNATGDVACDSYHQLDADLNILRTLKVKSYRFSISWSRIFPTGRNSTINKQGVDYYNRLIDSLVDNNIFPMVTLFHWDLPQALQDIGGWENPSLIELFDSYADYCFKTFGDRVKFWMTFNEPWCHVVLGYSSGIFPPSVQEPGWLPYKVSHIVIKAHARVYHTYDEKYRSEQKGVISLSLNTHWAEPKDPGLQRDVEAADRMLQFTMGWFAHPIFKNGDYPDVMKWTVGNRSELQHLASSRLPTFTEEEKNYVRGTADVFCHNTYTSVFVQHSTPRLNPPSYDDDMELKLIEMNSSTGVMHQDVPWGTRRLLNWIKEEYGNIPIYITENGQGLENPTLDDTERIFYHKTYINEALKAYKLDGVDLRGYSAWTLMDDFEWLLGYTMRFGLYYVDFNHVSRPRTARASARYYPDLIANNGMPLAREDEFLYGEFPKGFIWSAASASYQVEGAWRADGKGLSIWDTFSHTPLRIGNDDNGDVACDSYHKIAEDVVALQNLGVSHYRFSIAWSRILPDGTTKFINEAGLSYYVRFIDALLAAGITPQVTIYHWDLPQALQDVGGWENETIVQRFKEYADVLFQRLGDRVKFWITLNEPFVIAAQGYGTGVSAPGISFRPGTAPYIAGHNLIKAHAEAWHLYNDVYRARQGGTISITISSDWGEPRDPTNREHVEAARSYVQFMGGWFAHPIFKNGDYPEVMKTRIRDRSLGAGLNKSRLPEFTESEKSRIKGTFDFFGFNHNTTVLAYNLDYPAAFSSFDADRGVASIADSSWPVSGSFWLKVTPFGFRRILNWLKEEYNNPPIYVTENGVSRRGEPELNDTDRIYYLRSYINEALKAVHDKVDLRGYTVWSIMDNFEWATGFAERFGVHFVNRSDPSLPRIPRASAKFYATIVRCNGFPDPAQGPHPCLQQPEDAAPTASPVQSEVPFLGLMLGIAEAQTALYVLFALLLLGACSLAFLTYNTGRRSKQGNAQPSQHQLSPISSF
Chain of Sucrase-isomaltase, intestinal (P23739 1-1013 limits assumed): as the sequence (P23739 1-1013 limits assumed) above
Chain of Sucrase-isomaltase, intestinal (P23739 1014-1841 limits assumed): as the sequence (P23739 1014-1841 limits assumed) above
Chain of Lactase/phlorizin hydrolase (Rattus norvegicus) (Q02401 868-1928 limits assumed): as the sequence (Q02401 868-1928 limits assumed) above

Row | inhibition [1] [%] | IC50 [2] [µM] | IC50 [3] [µM] | IC50 [4] [µM] | IC50 [5] [µM] | IC50 [6] [µM] | inhibition [7] [%] | IC50 [8] [µM] | Ki [9] [µM] | IC50 (Uncharacterized protein) [µM] | Ki [10] [µM] | inhibition [11] [%] | inhibition [12] [%] | inhibition (Bos taurus) [%] | inhibition [13] [%] | IC50 [14] [µM] | inhibition [15] [%] | inhibition (Oryza sativa) [%] | inhibition (Rattus norvegicus) [%] | inhibition [16] [%] | SMILES
1 | < 50 | 60 | 320 | 11 | 380 | 380 | < 50 | 2.2 |  |  |  |  |  |  |  |  |  |  |  |  | OCC[C@H]1N[C@H](CO)[C@@H](O)[C@@H]1O
2 | < 50 | 4.4 | 4 | 300 | 2 | 3.8 |  | 130 | 1.5 | 5 | 54 | < 50 |  |  |  |  |  |  |  |  | OCC(O)[C@H]1N[C@H](CO)[C@@H](O)[C@@H]1O (mixture of isomers)
3 |  | 2.5 |  |  |  | 11 |  | 200 | 10 |  | 7 |  | < 50 |  |  |  |  |  |  |  | OC[C@H]1N[C@H](CO)[C@@H](O)[C@@H]1O
4 | < 50 |  |  |  |  |  | < 50 |  |  |  |  | < 50 | < 50 | < 50 | < 50 | 50 | < 50 | < 50 | < 50 | < 50 | OCC[C@H]1N[C@@H](CO)[C@H](O)[C@H]1O

Reference: ChEMBL document CHEMBL1150882, “Nitrogen-containing furanose and pyranose analogues from Hyacinthus orientalis” (J Nat Prod, 1998)
